In US10208045B2, “Aza-pyridone compounds and uses thereof” (Alios BioPharma, Inc., priority 2015, dated 2019):

Key:
[1] = biological target: Full length EN PA (influenza endonuclease) (Influenza A virus, UniProt P15659); test: EN PA FRET inhibition assay; format: biochemical; settings: 50 Nm FRET probe, mean of a minimum of two independent experiments, read-out: Potency (IC50 class)
[2] = system: Influenza strain A549_A/WSN/33 (H1N1); test: Influenza antiviral assay (neuraminidase fluorescence readout in A549 or MDCK cells); format: cell-based; settings: Influenza A virus, read-out: % Inhibition (EC50 class)

Structure (SMILES)	IC50 [1] [nM]	EC50 [2] [nM]
CCCN1C[C@H](C2c3ccc(F)cc3CCc3cc(F)ccc32)n2ncc(=O)c(O)c2C1=O [Compound 102]	< 250	< 20000
CC(C)COC(=O)Oc1c2n(ncc1=O)[C@@H](C1c3cccc(F)c3CCc3c(F)cccc31)CN(C(C)C)C2=O [Compound 31]	< 250	< 20000
CN1CC(C(c2ccccc2)c2cn(C)c3cc(F)ccc23)n2ncc(=O)c(O)c2C1=O (stereo not drawn) [Compound 5]	< 250	< 20000
O=C1NC[C@H](C(c2ccccc2)c2ccccc2)n2ncc(=O)c(O)c21 [Compound 10]	< 250	< 20000
CC(C)C(=O)Oc1c2n(ncc1=O)[C@@H](C1c3ccccc3CCc3ccccc31)CN(C(C)C)C2=O [Compound 23]	< 250	< 20000
CC(C)[C@H](N)C(=O)OCOc1c2n(ncc1=O)[C@@H](C1c3ccccc3CCc3ccccc31)CN(C(C)C)C2=O [Compound 40]	< 250	< 20000
CCCN1C[C@H](C2c3cccc(F)c3CCc3c(F)cccc32)n2ncc(=O)c(OC(C)=O)c2C1=O [Compound 29]	< 250	< 20000
Cc1cccc(C(c2cccc(C)c2)[C@H]2CN(C(C)C)C(=O)c3c(O)c(=O)cnn32)c1 [Compound 37]	< 250	< 20000
CC(C)N1C[C@H]([C@@H](c2ccccc2)n2cc(C#CCO)c(C#CCO)n2)n2ncc(=O)c(O)c2C1=O [Compound 34]	< 250	< 20000
CCCN1C[C@H](C(c2cccc(F)c2)c2cccc(F)c2)n2ncc(=O)c(OC(C)=O)c2C1=O (single isomer, unassigned) [Compound 1]	< 250	< 20000
[2H]C([2H])([2H])C([2H])(N1C[C@H](C(c2ccccc2)c2ccccc2)n2ncc(=O)c(O)c2C1=O)C([2H])([2H])[2H] [Compound 17]	< 250	< 20000
C#Cc1cn([C@@H](c2ccccc2)[C@H]2CN(C)C(=O)c3c(O)c(=O)cnn32)nc1C#C [Compound 16]	< 250	< 20000
CCCN1C[C@@H](C2c3ccccc3CCc3ccccc32)n2ncc(=O)c(O)c2C1=O [Compound 20]	250 to 1000	< 20000
CCCN1C[C@H](C2c3ccccc3CCc3ccccc32)n2ncc(=O)c(O)c2C1=O [Compound 19]	< 250	< 20000
CCCN1C[C@H](C2c3ccc(Cl)cc3CCc3cc(Cl)ccc32)n2ncc(=O)c(O)c2C1=O [Compound 104]	< 250	< 20000
CC(C)OC(=O)Oc1c2n(ncc1=O)[C@@H](C1c3cccc(F)c3CCc3c(F)cccc31)CN(C(C)C)C2=O [Compound 30]	< 250	< 20000
CCn1cc([C@H](c2ccccc2)[C@H]2CN(C)C(=O)c3c(O)c(=O)cnn32)c2ccc(CO)cc21 [Compound 49]	≥ 1000	–
CCCN1C[C@H](C2c3ccccc3CCc3ccccc32)n2ncc(=O)c(OC(C)=O)c2C1=O [Compound 25]	< 250	< 20000
C#Cc1cccc(C(c2cccc(C#C)c2)C2CN(C(C)C)C(=O)c3c(O)c(=O)cnn32)c1 (stereo not drawn) [Compound 11]	< 250	< 20000
CN1C[C@H]([C@H](c2ccccc2)n2cc(C#CC3CC3)c(C#CC3CC3)n2)n2ncc(=O)c(O)c2C1=O [Compound 35]	≥ 1000	< 20000
CN1C[C@H]([C@@H](c2ccccc2)n2cc(C#CC3CC3)c(C#CC3CC3)n2)n2ncc(=O)c(O)c2C1=O (single isomer, unassigned) [Compound 13]	< 250	< 20000
CN1C[C@H]([C@H](c2ccccc2)n2cc(C#CC3(O)CCC3)c(C#CC3(O)CCC3)n2)n2ncc(=O)c(O)c2C1=O [Compound 46]	250 to 1000	20000 to 100000
CCCN1C[C@H](C2c3cccc(F)c3CCc3c(F)cccc32)n2ncc(=O)c(O)c2C1=O [Compound 21]	< 250	< 20000
CCCN1C[C@H](C2c3ccccc3CCc3ccccc32)n2ncc(=O)c(OC(=O)C(C)C)c2C1=O [Compound 26]	< 250	< 20000
CN1C[C@H]([C@@H](c2ccccc2)n2cc(C#CCO)c(C#CCO)n2)n2ncc(=O)c(O)c2C1=O (single isomer, unassigned) [Compound 14]	< 250	< 20000
CCN1C[C@H](C2c3ccccc3CCc3ccccc32)n2ncc(=O)c(OC(=O)C(C)C)c2C1=O [Compound 28]	< 250	–

Structure (SMILES)	IC50 [1] [nM]	EC50 [2] [nM]
CC(C)OC(=O)OCOc1c2n(ncc1=O)[C@@H](C1c3cccc(F)c3CCc3c(F)cccc31)CN(C(C)C)C2=O [Compound 41]	< 250	< 20000
CC(C)[C@H](N)C(=O)OCOc1c2n(ncc1=O)[C@@H](C1c3cccc(F)c3CCc3c(F)cccc31)CN(C(C)C)C2=O [Compound 39]	< 250	< 20000
CCCN1C[C@H](C(c2cccc(Cl)c2)c2cccc(Cl)c2)n2ncc(=O)c(OC(C)=O)c2C1=O [Compound 54]	< 250	< 20000
C#Cc1cccc([C@@H](c2ccccc2)[C@H]2CN(C(C)C)C(=O)c3c(O)c(=O)cnn32)c1 [Compound 15]	< 250	< 20000
CC(=O)Oc1c2n(ncc1=O)[C@@H](C1c3cccc(F)c3CCc3c(F)cccc31)CN(C(C)C)C2=O [Compound 3]	< 250	< 20000
CN1C[C@H]([C@H](c2ccccc2)n2cc(I)c(I)n2)n2ncc(=O)c(O)c2C1=O [Compound 8]	< 250	< 20000
CC(C)OC(=O)OCOc1c2n(ncc1=O)[C@@H](C(c1ccccc1)c1ccccc1)CN(C(C)C)C2=O [Compound 2]	≥ 1000	< 20000
CCCCN1C[C@H](C(c2ccccc2)c2ccccc2)n2ncc(=O)c(O)c2C1=O [Compound 18]	< 250	< 20000
CC(C)N1C[C@H](C2c3ccc(F)cc3CCc3cc(F)ccc32)n2ncc(=O)c(O)c2C1=O [Compound 101]	< 250	< 20000
CC(C)N1C[C@H](C2c3ccc(Cl)cc3CCc3cc(Cl)ccc32)n2ncc(=O)c(O)c2C1=O [Compound 103]	< 250	< 20000
CCCN1C[C@@H](C2c3cccc(F)c3CCc3c(F)cccc32)n2ncc(=O)c(O)c2C1=O [Compound 22]	≥ 1000	< 20000
CCn1cc([C@@H](c2ccccc2)[C@H]2CN(C)C(=O)c3c(O)c(=O)cnn32)c2ccc(CO)cc21 [Compound 48]	≥ 1000	–
CC(=O)Oc1c2n(ncc1=O)[C@@H](C1c3ccccc3CCc3ccccc31)CN(C(C)C)C2=O [Compound 24]	< 250	< 20000
CC(C)N1C[C@H](C(c2ccccc2)c2ccccc2)n2ncc(=O)c(O[C@@H]3OC(C(=O)O)[C@@H](O)C(O)C3O)c2C1=O (stereo partly drawn) [Compound 4]	< 250	< 20000
O=C1c2c(O)c(=O)cnn2[C@@H](C(c2ccccc2)c2ccccc2)CN1Cc1ccccc1 [Compound 38]	< 250	< 20000
CCn1cc([C@@H](c2ccccc2)[C@H]2CN(C)C(=O)c3c(O)c(=O)cnn32)c2ccc(Br)cc21 [Compound 6]	250 to 1000	< 20000
CC(C)N1C[C@H](C(c2cccs2)c2cccs2)n2ncc(=O)c(O)c2C1=O [Compound 9]	< 250	< 20000
CN1C[C@H](C2c3cccc(Cl)c3CCc3c(Cl)cccc32)n2ncc(=O)c(O)c2C1=O [Compound 100]	< 250	< 20000
CN1C[C@H]([C@@H](c2ccccc2)n2cc(I)c(I)n2)n2ncc(=O)c(O)c2C1=O [Compound 7]	< 250	< 20000
CC(C)N1C[C@H]([C@@H](c2ccccc2)n2cc(C#CC3CC3)c(C#CC3CC3)n2)n2ncc(=O)c(O)c2C1=O [Compound 33]	250 to 1000	< 20000
CC(=O)Oc1c2n(ncc1=O)[C@@H](C(c1cccc(Cl)c1)c1cccc(Cl)c1)CN(C(C)C)C2=O [Compound 107]	< 250	< 20000
CC#Cc1cn([C@@H](c2ccccc2)[C@H]2CN(C)C(=O)c3c(O)c(=O)cnn32)nc1C#CC [Compound 12]	250 to 1000	< 20000
CCCN1C[C@H](C2c3cccc(Cl)c3CCc3c(Cl)cccc32)n2ncc(=O)c(O)c2C1=O [Compound 99]	< 250	< 20000
CCN1C[C@H](C2c3ccccc3CCc3ccccc32)n2ncc(=O)c(OC(C)=O)c2C1=O [Compound 27]	< 250	< 20000
CN1C[C@H]([C@H](c2ccccc2)n2cc(C#CCO)c(C#CCO)n2)n2ncc(=O)c(O)c2C1=O [Compound 36]	< 250	< 20000
